From patent US12258337B2, “Bicyclic CX3CR1 receptor agonists” (Board of Regents, The University of Texas System, priority 2019, dated 2025)
pEC50: −log10 of the molar value.

Assays:
Assay type in all cases: cell-based
mCX3CR1 = molecular target: T1, mCX3CR1 (Mus musculus, UniProt Q9Z0D9); experiment: Ga16 assay, CX3CR1 agonism, Ca2+ sensitive photo-protein readout (FLIPRTETRA); settings: mouse CX3CR1 cell line
T1 construct: expressed in transfected cells; stably expresses a Ca2+ sensitive photo-protein
T1 sequence (Q9Z0D9 1-354): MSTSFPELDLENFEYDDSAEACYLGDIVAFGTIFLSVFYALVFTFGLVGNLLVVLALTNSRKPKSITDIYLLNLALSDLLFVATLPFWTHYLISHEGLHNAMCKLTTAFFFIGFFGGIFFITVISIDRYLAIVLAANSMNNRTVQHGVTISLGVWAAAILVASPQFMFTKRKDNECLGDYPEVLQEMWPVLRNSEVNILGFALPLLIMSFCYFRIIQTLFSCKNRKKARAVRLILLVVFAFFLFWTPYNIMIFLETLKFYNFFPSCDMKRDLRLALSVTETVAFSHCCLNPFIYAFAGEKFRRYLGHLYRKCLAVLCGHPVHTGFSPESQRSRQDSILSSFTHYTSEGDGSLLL
Procedure: (§1) Compounds (as well as stereoisomer(s) thereof and/or salt(s) thereof) were tested for CX3CR1 agonism in a cell based assay with fluorescent readout in Agonist Mode in dose response in quadruplicate with intra-plate modality).
(§2) Buffers and reagents. PBS (D-PBS without calcium and magnesium; EuroClone); Trypsin (Trypsin 0.05%, EDTA 0.02% in PBS; EuroClone); DMSO (Sigma); Standard tyrode buffer: in-house solution (130 mM NaCl, 5 mM KCl, 2 mM CaCl2), 1 mM MgCl2, 5 mM NaHCO3, 20 mM HEPES in water at pH 7.4; sterile filtered); Coelenterazine, native (Biosynth); stock 10 mM; Agonist: Recombinant Human Fractalkine (CX3CL1) (PeproTech); stock: 10 μM in standard tyrode buffer+BSA 0.1%; stored at −20° C.
(§3) Cell line. Human (hCX3CR1), mouse (mCX3CR1), and rat (rCX3CR1) were used for the assay.
(§4) Assay protocol. Experiments ere performed in 384 MTP format. Cells were seeded at 7,500 cells/well in 25 μl/well complete growth medium without selection antibiotics in 384-well plates. Twenty-four hours later, cells ere assayed for the response to various compounds using the Ca^2+ sensitive photo-protein stably expressed in the cells as readout.
(§5) The experiment was performed in a 384-well format according to the following procedure: • 24h after seeding, pre-incubate the cells at room temperature for 1 hour. • Then remove the culture medium. • Load cells with 20 μL/well of standard tyrode buffer+10 μM ceolenterazine. • Incubate cell plates for 3 hours at RT. • Inject 10 μL/w of 3× concentrated test compounds and controls in assay buffer at the FLIPRTETRA and monitor the kinetic response over a period of 90 seconds.
(§6) Data from FLIPRTETRA measurements were analyzed with the Genedata Screener© software. The following examples are meant to illustrate, but in no way to limit, the claimed invention.

rCX3CR1 = molecular target: T2, rCX3CR1 (Rattus norvegicus, UniProt P35411); experiment: as above; settings: rat CX3CR1 cell line
T2 construct: expressed in transfected cells; stably expresses a Ca2+ sensitive photo-protein
T2 sequence (P35411 1-354): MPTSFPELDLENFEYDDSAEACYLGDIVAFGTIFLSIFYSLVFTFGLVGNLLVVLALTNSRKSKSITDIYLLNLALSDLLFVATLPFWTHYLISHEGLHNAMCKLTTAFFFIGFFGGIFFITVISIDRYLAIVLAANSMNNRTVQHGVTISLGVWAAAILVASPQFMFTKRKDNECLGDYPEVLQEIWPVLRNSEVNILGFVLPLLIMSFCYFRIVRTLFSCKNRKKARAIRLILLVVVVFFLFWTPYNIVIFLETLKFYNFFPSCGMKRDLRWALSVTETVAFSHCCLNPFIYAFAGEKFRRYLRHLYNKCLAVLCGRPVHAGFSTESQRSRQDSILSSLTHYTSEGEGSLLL
Procedure: as §1, §2, §3, §4, §5, §6

hCX3CR1 [1] = molecular target: T3, hCX3CR1 (Homo sapiens, UniProt P49238); experiment: as above; set-up: expressed in transfected cells; stably expresses a Ca2+ sensitive photo-protein; settings: human CX3CR1 cell line
T3 sequence (P49238 1-355): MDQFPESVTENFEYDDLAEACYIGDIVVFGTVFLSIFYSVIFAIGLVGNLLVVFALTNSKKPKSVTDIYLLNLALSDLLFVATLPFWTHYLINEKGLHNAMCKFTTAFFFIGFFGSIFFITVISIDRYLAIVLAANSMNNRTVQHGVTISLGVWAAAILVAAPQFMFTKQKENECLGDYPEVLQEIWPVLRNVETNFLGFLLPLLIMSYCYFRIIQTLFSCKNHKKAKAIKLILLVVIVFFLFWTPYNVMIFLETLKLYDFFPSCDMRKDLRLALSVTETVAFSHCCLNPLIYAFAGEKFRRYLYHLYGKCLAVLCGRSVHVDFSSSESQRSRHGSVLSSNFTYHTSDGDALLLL
Procedure: as §1, §2, §3, §4, §5, §6

hCX3CR1 [2] = molecular target: T3, hCX3CR1; experiment: Suchi5 assay (HEK/NatClytin/CNG/Suchi5 transiently transfected hCX3CR1, Fluo-8 Ca2+ readout); set-up: expressed in transfected cells; stably expresses a Ca2+ sensitive photo-protein; settings: Suchi5 assay, HEK/NatClytin/CNG/Suchi5 transfected with hCX3CR1; read-out: hCX3CR1 agonism EC50
Procedure: Buffers and reagents. PBS (D-PBS without calcium and magnesium; EuroClone); Trypsin (Trypsin 0.05%, EDTA 0.02% in PBS; EuroClone); Opti-MEM medium (Thermo Fisher); DMSO (Sigma); Standard tyrode buffer: in-house solution (130 mM NaCl, 5 mM KCl, 2 mM CaCl2), 1 mM MgCl2, 5 mM NaHCO3, 20 mM HEPES in water at pH 7.4; sterile filtered); Screen Quest™ Fluo-8 No Wash Calcium Assay Kit (AAt Bioquest®); Lipofectamine® 2000 Reagent (Thermo Fisher); Agonist: Recombinant Human Fractalkine (CX3CL1) (PeproTech); stock: 10 μM in standard Tyrode buffer/BSA 01%; stored at −20° C.
Cell line. The final cell line for CX3CR1-Suchi5 assay is HEK/NatClytin/CNG/Suchi5 transiently transfected hCX3CR1 cDNA. In this cell line native Gαi signaling is switched to Gαq pathway thanks to the overexpression of a Gαiq chimeric G protein (called Suchi5) to direct Gαi activation towards Ca^2+ release for measurement.
Assay protocol. Experiments are performed in 384 MTP format. Transiently transfected cells are seeded at 20,000 cells/well in 25 μl/well Opti-MEM medium without selection antibiotics in 384-well plates. 4-5-hours later 25 μL/well of complete medium with 20% of FBS are added to the cells. Twenty-four hours later, cells are assayed for the response to various compounds using a fluorescent Ca^2+ sensitive dye (FLUO8-No Wash Dye) as readout.
The experiment is performed in a 384-well format according to the following procedure: • 24h after seeding, remove the culture medium. • Load cells with 20 μL/well of 0.5X FLUO-8 No Wash Dye diluted in assay buffer. • Incubate cell plates for 1 hour at RT. • Inject 10 μL/w of 3× concentrated test compounds and controls in assay buffer at the FLIPRTETRA and monitor the kinetic response over a period of 90 seconds.
Data from FLIPRTETRA measurements are analyzed with the Genedata Screener© software.

SMILES | pEC50 (mCX3CR1) | pEC50 (rCX3CR1) | pEC50 (hCX3CR1 [1]) | pEC50 (hCX3CR1 [2])
O=C(NCC1(CN2CCCC(O)C2)CCC1)c1cc2c(s1)CCCCCC2 (centres unmarked) [Example 65, N-[[1-[(3-hydroxypiperidin-1-yl)methyl]cyclobutyl]methyl]-4,5,6,7,8,9-hexahydrocycloocta[b]thiophene-2-carboxamide] | 5.04 | 5.13 | 5.22 | 5.09
COC1(C)CCN(CC2(CNC(=O)c3cc4c(s3)CCCCCC4)CCC2)CC1 [Example 48, N-[[1-[(4-methoxy-4-methylpiperidin-1-yl)methyl]cyclobutyl]methyl]-4,5,6,7,8,9-hexahydrocycloocta[b]thiophene-2-carboxamide] | 4.74 | 4.86 | 4.73 | 5.00
COC1CCN(CC(C)(C)CNC(=O)c2cc3c(s2)CCCCCC3)CC1 [Example 47, N-[3-(4-methoxypiperidin-1-yl)-2,2-dimethylpropyl]-4,5,6,7,8,9-hexahydrocycloocta[b]thiophene-2-carboxamide] | 4.15 | 4.70 | 4.90 | 4.79
CC1CCCC1(CNC(=O)c1cc2c(s1)CCCCCC2)CN(C)C (single isomer, unassigned) [Example 60, N-[[1-[(dimethylamino)methyl]-2-methylcyclopentyl]methyl]-4,5,6,7,8,9-hexahydrocycloocta[b]thiophene-2-carboxamide] | 4.05 | 4.72 | 4.77 | 4.99
O=C(NCC1(CN2CCC(O)C2)CCC1)c1cc2c(s1)CCCCCC2 (centres unmarked) [Example 66, N-[[1-[(3-hydroxypyrrolidin-1-yl)methyl]cyclobutyl]methyl]-4,5,6,7,8,9-hexahydrocycloocta[b]thiophene-2-carboxamide] | 4.69 | 4.94 | 4.80 | 5.14
O=C(NCC1(CN2CCC(O)C2)CCCC1)c1cc2c(s1)CCCCCC2 (single isomer, unassigned) [Example 64, N-[[1-[(3-hydroxypyrrolidin-1-yl)methyl]cyclopentyl]methyl]-4,5,6,7,8,9-hexahydrocycloocta[b]thiophene-2-carboxamide] | 4.86 | 5.04 | 4.99 | 5.06
O=C(NCC1(CN2CCCC2)CC(F)(F)C1)c1cc2c(s1)CCCCCC2 [Example 57, N-[[3,3-difluoro-1-(pyrrolidin-1-ylmethyl)cyclobutyl]methyl]-4,5,6,7,8,9-hexahydrocycloocta[b]thiophene-2-carboxamide] | 4.52 | 4.69 | 4.82 | 4.81
CC1CCCC1(CNC(=O)c1cc2c(s1)CCCCCC2)CN1CCCC1 (centres unmarked) [Example 62, N-[[2-methyl-1-(pyrrolidin-1-ylmethyl)cyclopentyl]methyl]-4,5,6,7,8,9-hexahydrocycloocta[b]thiophene-2-carboxamide] | 4.00 | 4.39 | 4.68 | 4.89
COC1(C)CCN(CC2(CNC(=O)c3cc4c(s3)CCCCCC4)CCCC2)CC1 [Example 53, N-[[1-[(4-methoxy-4-methylpiperidin-1-yl)methyl]cyclopentyl]methyl]-4,5,6,7,8,9-hexahydrocycloocta[b]thiophene-2-carboxamide] | 4.31 | 4.47 | 5.07 | 4.93
CC(C)OC1CCN(CC2(CNC(=O)c3cc4c(s3)CCCCCC4)CCC2)CC1 [Example 51, N-[[1-[(4-propan-2-yloxypiperidin-1-yl)methyl]cyclobutyl]methyl]-4,5,6,7,8,9-hexahydrocycloocta[b]thiophene-2-carboxamide] | 4.81 | 4.46 | 4.80 | 4.74
CC(C)(CNC(=O)c1cc2c(s1)CCCCCC2)CN1CCC(C)(O)CC1 [Example 67, N-[3-(4-hydroxy-4-methylpiperidin-1-yl)-2,2-dimethylpropyl]-4,5,6,7,8,9-hexahydrocycloocta[b]thiophene-2-carboxamide] | 4.06 | 4.10 | 4.74 | 4.84
